Results: PubChem BioAssay AID1963963 (Molecular Pharmacology Branch, DTP, NCI, 2024)
Where “and” joins values, the source holds several entries; their conditions need not be identical. Equal entries are not always repeated. Each block holds one molecule with its values, some of them ahead of it.

Tested on: 958667-338-R-J2-PDC tumor spheroids viability
Experiment: Anticancer human tumor 958667-338-R-J2-PDC patient-derived colon adenocarcinoma cell line growth inhibition [PI3K]
Conditions: spheroids with HUVEC and MSC; for viability, T/C: stronger effect = lower value
In short: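 Viability of mixed-cell spheroids was determined after exposure to pairwise combinations, one partner being inavolisib, alpelisib, duvelisib or copanlisib. Highest tested concentration matched clinical Cmax where known and 10 microM where not, descending in half-log steps.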

[1] = curve of first compound, second compound 0.0316 µM
[2] = curve of first compound, second compound 0.1 µM
[3] = curve of first compound, second compound 0.316 µM
[4] = curve of first compound, second compound 1 µM
[5] = curve of first compound, second compound 3.16 µM
[6] = curve of first compound, second compound 10 µM
[7] = second compound 0.0316 µM, first compound 0.0316 µM
[8] = second compound 0.0316 µM, first compound 0.1 µM
[9] = second compound 0.0316 µM, first compound 0.316 µM
[10] = second compound 0.0316 µM, first compound 1 µM
[11] = second compound 0.0316 µM, first compound 3.16 µM
[12] = second compound 0.0316 µM, first compound 10 µM
[13] = second compound 0.1 µM, first compound 0.0316 µM
[14] = second compound 0.1 µM, first compound 0.1 µM
[15] = second compound 0.1 µM, first compound 0.316 µM
[16] = second compound 0.1 µM, first compound 1 µM
[17] = second compound 0.1 µM, first compound 3.16 µM
[18] = second compound 0.1 µM, first compound 10 µM
[19] = second compound 0.316 µM, first compound 0.0316 µM
[20] = second compound 0.316 µM, first compound 0.1 µM
[21] = second compound 0.316 µM, first compound 0.316 µM
[22] = second compound 0.316 µM, first compound 1 µM
[23] = second compound 0.316 µM, first compound 3.16 µM
[24] = second compound 0.316 µM, first compound 10 µM
[25] = second compound 1 µM, first compound 0.0316 µM
[26] = second compound 1 µM, first compound 0.1 µM
[27] = second compound 1 µM, first compound 0.316 µM
[28] = second compound 1 µM, first compound 1 µM
[29] = second compound 1 µM, first compound 3.16 µM
[30] = second compound 1 µM, first compound 10 µM
[31] = second compound 3.16 µM, first compound 0.0316 µM
[32] = second compound 3.16 µM, first compound 0.1 µM
[33] = second compound 3.16 µM, first compound 0.316 µM
[34] = second compound 3.16 µM, first compound 1 µM
[35] = second compound 3.16 µM, first compound 3.16 µM
[36] = second compound 3.16 µM, first compound 10 µM
[37] = second compound 10 µM, first compound 0.0316 µM
[38] = second compound 10 µM, first compound 0.1 µM
[39] = second compound 10 µM, first compound 0.316 µM
[40] = second compound 10 µM, first compound 1 µM
[41] = second compound 10 µM, first compound 3.16 µM
[42] = second compound 10 µM, first compound 10 µM
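Note: spheroids exposed to compounds for seven days before readout.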

SMILES: CC1(C)CCC(CN2CCN(c3ccc(C(=O)NS(=O)(=O)c4ccc(NCC5CCOCC5)c([N+](=O)[O-])c4)c(Oc4cnc5[nH]ccc5c4)c3)CC2)=C(c2ccc(Cl)cc2)C1
viability, T/C (compound 0.316 µM): 106% [middle of 4 runs] | viability, T/C (compound 1 µM): 109% (2×) and 87% and 112% | viability, T/C (compound 3.16 µM): 98.7% [middle of 4 runs] | IC50 (curve of compound): > 10 µM and 6.88 µM and 6.97 µM

SMILES: C=CC(=O)N1CCN(c2nc(=O)n(-c3c(C)ccnc3C(C)C)c3nc(-c4c(O)cccc4F)c(F)cc23)C(C)C1 (stereo unspecified) + CC(Nc1ncnc2nc[nH]c12)c1cc2cccc(Cl)c2c(=O)n1-c1ccccc1
IC50 [1]: > 10 µM | IC50 [2]: > 10 µM | IC50 [3]: > 10 µM | IC50 [4]: > 10 µM | IC50 [5]: > 10 µM | IC50 [6]: > 10 µM | viability, T/C [7]: 118% | viability, T/C [8]: 117% | viability, T/C [9]: 104% | viability, T/C [10]: 109% | viability, T/C [11]: 130% | viability, T/C [12]: 127% | viability, T/C [13]: 106% | viability, T/C [14]: 118% | viability, T/C [15]: 112% | viability, T/C [16]: 104% | viability, T/C [17]: 118% | viability, T/C [18]: 98% | viability, T/C [19]: 116% | viability, T/C [20]: 90.8% | viability, T/C [21]: 93.6% | viability, T/C [22]: 149% | viability, T/C [23]: 116% | viability, T/C [24]: 96.8% | viability, T/C [25]: 108% | viability, T/C [26]: 106% | viability, T/C [27]: 85.9% | viability, T/C [28]: 96.5% | viability, T/C [29]: 123% | viability, T/C [30]: 120% | viability, T/C [31]: 89.8% | viability, T/C [32]: 88.1% | viability, T/C [33]: 99.9% | viability, T/C [34]: 125% | viability, T/C [35]: 112% | viability, T/C [36]: 111% | viability, T/C [37]: 93.3% | viability, T/C [38]: 90.3% | viability, T/C [39]: 115% | viability, T/C [40]: 104% | viability, T/C [41]: 101% | viability, T/C [42]: 105%

Further lines, with some results ahead:

IC50 [1]: 2.45 µM | IC50 [2]: 2.05 µM | IC50 [3]: 1.88 µM | IC50 [4]: 1.59 µM | IC50 [5]: 1.31 µM | IC50 [6]: < 0.0316 µM
SMILES: Cn1ncc(Cl)c1-c1cc(C(=O)NC(CN)Cc2cccc(F)c2)sc1Cl (stereo unspecified) + Cc1nc(NC(=O)N2CCCC2C(N)=O)sc1-c1ccnc(C(C)(C)C(F)(F)F)c1
viability, T/C [7]: 88.2% | viability, T/C [8]: 84.3% | viability, T/C [9]: 89.2% | viability, T/C [10]: 70.5% | viability, T/C [11]: 44.7% | viability, T/C [12]: 37.2% | viability, T/C [13]: 84.4% | viability, T/C [14]: 81.7% | viability, T/C [15]: 97.5% | viability, T/C [16]: 69.5% | viability, T/C [17]: 41.3% | viability, T/C [18]: 34.8% | viability, T/C [19]: 71.4% | viability, T/C [20]: 65.6% | viability, T/C [21]: 64.6% | viability, T/C [22]: 63.7% | viability, T/C [23]: 39% | viability, T/C [24]: 26.9% | viability, T/C [25]: 71.7% | viability, T/C [26]: 80.9% | viability, T/C [27]: 57.3% | viability, T/C [28]: 63.7% | viability, T/C [29]: 31.2% | viability, T/C [30]: 24.9% | viability, T/C [31]: 66.7% | viability, T/C [32]: 64.4% | viability, T/C [33]: 72% | viability, T/C [34]: 56% | viability, T/C [35]: 27.6% | viability, T/C [36]: 18.1% | viability, T/C [37]: 49.4% | viability, T/C [38]: 44.7% | viability, T/C [39]: 46% | viability, T/C [40]: 41.7% | viability, T/C [41]: 23.8% | viability, T/C [42]: 15.1%

IC50 (curve of compound): > 0.1 µM
SMILES: Cn1ncnc1[C@H]1c2n[nH]c(=O)c3cc(F)cc(c23)N[C@@H]1c1ccc(F)cc1
viability, T/C (compound 0.000316 µM): 115% [middle of 4 runs] | viability, T/C (compound 0.001 µM): 110% [middle of 4 runs] | viability, T/C (compound 0.00316 µM): 97.5% [middle of 4 runs] | viability, T/C (compound 0.0316 µM): 103% [middle of 4 runs] | viability, T/C (compound 0.1 µM): 99.1% [middle of 4 runs]

IC50 (curve of first compound, second compound 0.00316 µM): 6.1 µM | IC50 (curve of first compound, second compound 0.01 µM): 6.01 µM | IC50 [1]: 5 µM | IC50 [2]: 4.77 µM | IC50 [3]: 4.81 µM | IC50 [4]: 4.04 µM
SMILES: CCCS(=O)(=O)Nc1ccc(F)c(C(=O)c2c[nH]c3ncc(-c4ccc(Cl)cc4)cc23)c1F + CC(Nc1ccc2c(c1)OCCn1cc(N3C(=O)OCC3C(F)F)nc1-2)C(N)=O
viability, T/C (second compound 0.00316 µM, first compound 0.0316 µM): 99% | viability, T/C (second compound 0.00316 µM, first compound 0.1 µM): 105% | viability, T/C (second compound 0.00316 µM, first compound 0.316 µM): 106% | viability, T/C (second compound 0.00316 µM, first compound 1 µM): 106% | viability, T/C (second compound 0.00316 µM, first compound 3.16 µM): 112% | viability, T/C (second compound 0.00316 µM, first compound 10 µM): 8.08% | viability, T/C (second compound 0.01 µM, first compound 0.0316 µM): 105% | viability, T/C (second compound 0.01 µM, first compound 0.1 µM): 111% | viability, T/C (second compound 0.01 µM, first compound 0.316 µM): 83.7% | viability, T/C (second compound 0.01 µM, first compound 1 µM): 99.9% | viability, T/C (second compound 0.01 µM, first compound 3.16 µM): 130% | viability, T/C (second compound 0.01 µM, first compound 10 µM): 5.91% | viability, T/C [7]: 104% | viability, T/C [8]: 109% | viability, T/C [9]: 104% | viability, T/C [10]: 106% | viability, T/C [11]: 76.7% | viability, T/C [12]: 9.56% | viability, T/C [13]: 78.3% | viability, T/C [14]: 74.9% | viability, T/C [15]: 72.3% | viability, T/C [16]: 67.5% | viability, T/C [17]: 81.1% | viability, T/C [18]: 5.14% | viability, T/C [19]: 72.5% | viability, T/C [20]: 65.5% | viability, T/C [21]: 61.5% | viability, T/C [22]: 79.1% | viability, T/C [23]: 79.7% | viability, T/C [24]: 12.3% | viability, T/C [25]: 57.8% | viability, T/C [26]: 61% | viability, T/C [27]: 58% | viability, T/C [28]: 68.9% | viability, T/C [29]: 60.5% | viability, T/C [30]: 10.8%
